Measured values from patent US5106853A, “Oxadiazole and its salts, their use in treating dementia” (Merck Sharp & Dohme, Ltd., priority 1989, dated 1992).
Like-named read-outs stand apart in the source and are kept apart here.

Experiments:
[1] = target: T1, M-1 receptor (Rattus norvegicus, UniProt P08482); test: Functional selectivity, rat superior cervical ganglion (methods of J. Med. Chem. (1987), 30, 969-975); type: cell-based; conditions: mean ± S.D. (n = 5)
T1 construct: from tissue
T1 sequence (P08482 1-460): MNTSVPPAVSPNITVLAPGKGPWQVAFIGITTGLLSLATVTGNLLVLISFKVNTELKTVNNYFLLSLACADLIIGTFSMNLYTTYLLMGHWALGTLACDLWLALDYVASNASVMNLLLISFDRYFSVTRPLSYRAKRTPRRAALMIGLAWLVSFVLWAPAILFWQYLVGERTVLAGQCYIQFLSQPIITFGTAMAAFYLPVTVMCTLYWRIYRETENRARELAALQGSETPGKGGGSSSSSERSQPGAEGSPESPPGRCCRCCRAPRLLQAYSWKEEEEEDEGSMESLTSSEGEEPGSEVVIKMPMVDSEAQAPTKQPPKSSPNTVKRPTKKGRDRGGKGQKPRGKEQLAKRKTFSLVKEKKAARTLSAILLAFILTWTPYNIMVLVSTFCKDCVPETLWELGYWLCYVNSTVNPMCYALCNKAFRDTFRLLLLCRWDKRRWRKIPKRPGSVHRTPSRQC
Procedure: (§1) B. By the methods disclosed in J. Med. Chem. (1987), 30, 969-975 was determined the functional selectivity of compound (I): […]

[2] = target: muscarinic acetylcholine receptors; test: NMS/OXO-M displacement: [3H]NMS and [3H]OXO-M Kapp (method of Br. J. Pharmacol. (1988), 93, 437-445); type: binding; conditions: for Kd: Kapp = corrected dissociation constant allowing for ligand occupancy
Procedure: A. By the method disclosed in Br. J. Pharmacol. (1988), 93, 437-445 were determined the NMS/OXO-M data for the compound (I): [^3 H]NMS Kapp =0.025 μM; [^3 H]OXO-M Kapp =0.0017 μM; ratio NMS/OXO-M=15; (Kapp =corrected dissociation constant allowing for ligand occupancy).

[3] = target: T2, M-3 receptor (Cavia porcellus, UniProt H0W1Z3); test: Functional selectivity, guinea-pig myenteric plexus/longitudinal muscle strip (methods of J. Med. Chem. (1987), 30, 969-975); type: cell-based
T2 construct: from tissue; host or cells: guinea-pig myenteric plexus/longitudinal muscle strip
Procedure: as §1

[4] = target: T3, M-2 receptor (Cavia porcellus, UniProt H0VRN8); test: Functional selectivity, guinea-pig atrium (methods of J. Med. Chem. (1987), 30, 969-975); type: cell-based
T3 construct: from tissue; host or cells: guinea-pig atrium
T3 sequence (H0VRN8 1-466): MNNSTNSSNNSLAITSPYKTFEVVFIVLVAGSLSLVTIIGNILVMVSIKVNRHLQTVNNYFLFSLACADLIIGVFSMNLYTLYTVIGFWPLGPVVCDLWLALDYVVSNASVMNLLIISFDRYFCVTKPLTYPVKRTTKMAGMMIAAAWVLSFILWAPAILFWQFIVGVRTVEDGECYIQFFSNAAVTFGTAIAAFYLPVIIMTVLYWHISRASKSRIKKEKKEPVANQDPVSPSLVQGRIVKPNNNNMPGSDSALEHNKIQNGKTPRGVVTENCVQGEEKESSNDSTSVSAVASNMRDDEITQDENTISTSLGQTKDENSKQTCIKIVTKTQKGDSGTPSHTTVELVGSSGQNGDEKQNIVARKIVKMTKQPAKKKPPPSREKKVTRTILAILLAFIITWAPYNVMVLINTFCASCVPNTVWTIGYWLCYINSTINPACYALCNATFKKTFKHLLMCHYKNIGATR
Procedure: as §1

[5] = relative maximum, read-out: Rel. Max.

T2 sequence (H0W1Z3 1-590): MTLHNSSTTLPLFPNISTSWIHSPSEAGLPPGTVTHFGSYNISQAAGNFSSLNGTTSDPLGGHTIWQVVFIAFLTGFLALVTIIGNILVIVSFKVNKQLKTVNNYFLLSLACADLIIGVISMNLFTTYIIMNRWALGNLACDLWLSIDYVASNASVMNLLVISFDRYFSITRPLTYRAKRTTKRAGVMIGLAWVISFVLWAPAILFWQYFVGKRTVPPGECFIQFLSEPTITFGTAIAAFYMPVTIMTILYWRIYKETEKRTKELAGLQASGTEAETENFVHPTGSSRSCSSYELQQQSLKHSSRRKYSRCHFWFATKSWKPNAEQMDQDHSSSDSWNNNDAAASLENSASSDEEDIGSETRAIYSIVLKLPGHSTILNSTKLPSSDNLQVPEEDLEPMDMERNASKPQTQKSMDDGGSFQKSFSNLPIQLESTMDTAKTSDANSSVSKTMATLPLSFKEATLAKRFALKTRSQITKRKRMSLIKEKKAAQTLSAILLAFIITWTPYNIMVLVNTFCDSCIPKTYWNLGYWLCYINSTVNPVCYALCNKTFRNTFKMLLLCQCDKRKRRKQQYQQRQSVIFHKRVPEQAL

## C1CC1c1noc([C@H]2CN3CC[C@H]2C3)n1 [compound (I), (3R, 4R)-3-(3-cyclopropyl-1,2,4-oxadiazol-5-yl)-1-azabicyclo[2.2.1]heptane]
[1]
  EC50: 63.1 nM
[1]; [5]
  Emax: 55 ± 10%
[2]; radioligand [3H]NMS, read-out: [3H]NMS Kapp
  Kd: 25 nM
[2]; radioligand [3H]OXO-M, read-out: [3H]OXO-M Kapp
  Kd: 1.7 nM
[2]; ratio of Kapp values
  ratio NMS/OXO-M: 15
[3]; 95% confidence limits 7.90-8.40, n = 12, slope of Arunlakshana-Schild plot not significantly different from unity, read-out: pA2 (converted)
  Kb: 7.08 nM
[3]; [5]
  Emax: 0%
[4]; 95% confidence limits 7.80-8.20, n = 10, slope of Arunlakshana-Schild plot not significantly different from unity, read-out: pA2 (converted)
  Kb: 10 nM
[4]; [5]
  Emax: 0%
